Data from ChEMBL document CHEMBL5346928, “Discovery of orally effective and safe GPR40 agonists by incorporating a chiral, rigid and polar sulfoxide into β-position to the carboxylic acid” (Eur J Med Chem, 2023).
One block for each compound: values may come before it.

Tests used:
[1] = molecular target: Free fatty acid receptor 1 (Homo sapiens, UniProt O14842); assay: Agonist activity at human GPR40 expressed in HEK293 cells by Fluo4-AM dye based intracellular calcium flux assay; type: functional, cell-based
Chain of Free fatty acid receptor 1 (O14842 whole entry): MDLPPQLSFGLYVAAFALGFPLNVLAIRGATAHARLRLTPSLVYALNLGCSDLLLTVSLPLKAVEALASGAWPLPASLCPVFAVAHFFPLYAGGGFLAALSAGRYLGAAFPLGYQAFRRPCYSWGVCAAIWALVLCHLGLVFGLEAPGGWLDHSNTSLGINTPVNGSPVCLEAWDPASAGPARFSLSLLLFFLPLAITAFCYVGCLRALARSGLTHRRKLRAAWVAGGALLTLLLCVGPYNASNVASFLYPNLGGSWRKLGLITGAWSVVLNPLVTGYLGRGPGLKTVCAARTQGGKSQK

[2] = molecular target: GPR40-Galpha16 (Homo sapiens, UniProt O14842+P30679); assay: Agonist activity at human GPR40/Galpha-16 expressed in HEK293 cells by Fluo4-AM dye based intracellular calcium flux assay; type: cell-based
Chain of GPR40-Galpha16 (O14842 whole entry): as above
Chain of GPR40-Galpha16 (P30679 whole entry): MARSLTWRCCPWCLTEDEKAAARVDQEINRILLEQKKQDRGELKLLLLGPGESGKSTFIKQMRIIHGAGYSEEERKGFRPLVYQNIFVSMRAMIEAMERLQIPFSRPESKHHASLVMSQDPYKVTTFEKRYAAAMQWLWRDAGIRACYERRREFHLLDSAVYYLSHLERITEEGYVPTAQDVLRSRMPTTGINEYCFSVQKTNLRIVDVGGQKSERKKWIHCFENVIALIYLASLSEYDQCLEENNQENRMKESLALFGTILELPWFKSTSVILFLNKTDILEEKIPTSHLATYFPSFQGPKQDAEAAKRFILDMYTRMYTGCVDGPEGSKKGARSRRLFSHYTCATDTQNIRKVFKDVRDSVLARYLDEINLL

[3] = Inhibition of bile acid efflux in Sprague-Dawley rat hepatocytes assessed as decrease in biliary excretion index incubated for 15 mins followed by compound washout for 15 mins and subsequent addition of compounds with d8-TCA measured after 15 mins by LC-MS/MS analysis; type: toxicity, cell-based, Hepatocyte; details: 0.5 h, at 5 to 25 µM, dose 5-25 µM, time 30 min
[4] = tested on: Hepatocyte; assay: Cytotoxicity against human primary hepatocytes assessed as cell viability at 1 to 100 uM incubated for 24 hrs by WST-1 assay; type: toxicity, cell-based; details: dose 1-100 µM
[5] = Cmax in Sprague-Dawley rat at 10 mg/kg, po by LC-MS analysis; type: ADME, organism-based; design: dose 10 mg/kg, route po; details: in vivo
[6] = Half life in Sprague-Dawley rat at 10 mg/kg, po by LC-MS analysis; type: ADME, organism-based; details: in vivo
[7] = Metabolic stability in human liver microsomes assessed as intrinsic clearance; type: ADME, Microsome
[8] = MRTlast in Sprague-Dawley rat at 10 mg/kg, po by LC-MS analysis; type: ADME, organism-based; details: in vivo
[9] = Half life in Sprague-Dawley rat at 1 mg/kg, iv by LC-MS analysis; type: ADME, organism-based; details: in vivo
[10] = Metabolic stability in human liver microsomes assessed as half life; type: ADME, Microsome
[11] = Tmax in Sprague-Dawley rat at 10 mg/kg, po by LC-MS analysis; type: ADME, organism-based; details: in vivo
[12] = Oral bioavailability in Sprague-Dawley rat […] by LC-MS analysis; type: ADME, organism-based; details: in vivo
[13] = tested on: Hepatocyte; assay: Disruption of plasma membrane integrity in rat primary hepatocytes assessed as LDH release in cytosol at 100 uM incubated for 24 hrs by absorbance based assay; type: toxicity, cell-based
[14] = AUC (0 to t) in Sprague-Dawley rat at 1 mg/kg, iv by LC-MS analysis; type: ADME, organism-based; design: dose 1 mg/kg, route iv; details: in vivo
[15] = Metabolic stability in rat liver microsomes assessed as half life; type: ADME, Microsome
[16] = Cmax in Sprague-Dawley rat at 1 mg/kg, iv by LC-MS analysis; type: ADME, organism-based; design: dose 1 mg/kg, route iv; details: in vivo
[17] = Metabolic stability in rat liver microsomes assessed as intrinsic clearance; type: ADME, Microsome; details: read-out: CLH
[18] = tested on: Hepatocyte; assay: Disruption of plasma membrane integrity in human primary hepatocytes assessed as LDH release in cytosol upto 100 uM incubated for 24 hrs by absorbance based assay; type: toxicity, cell-based
[19] = MRTlast in Sprague-Dawley rat at 1 mg/kg, iv by LC-MS analysis; type: ADME, organism-based; details: in vivo
[20] = AUC (0 to t) in Sprague-Dawley rat at 10 mg/kg, po by LC-MS analysis; type: ADME, organism-based; design: dose 10 mg/kg, route po; details: in vivo

Compound: CCCCC/C=C\C/C=C\CCCCCCCC(=O)O [LINOLEIC ACID]
EC50 [1]: 6040 nM
EC50 [2]: 10100 nM

Compound: COc1ccc(F)c(-c2cccc(COc3ccc(S(=O)(=O)CC(=O)O)cc3)c2)c1
EC50 [1]: 2900 nM

Compound: Cc1ccccc1C#Cc1ccc(S(=O)(=O)CC(=O)O)cc1
EC50 [1]: 4880 nM

Compound: Cc1noc(C)c1-c1cccc(COc2ccc([S+]([O-])CC(=O)O)cc2)c1 (racemic)
EC50 [1]: 5380 nM

Compound: Cc1cccc(C)c1-c1cccc(COc2ccc([S@@+]([O-])CC(=O)O)cc2)c1
Activity [4]: Non-Toxic
Cmax [5]: 1230 ng/mL
half-life [6]: 3.2 h
CLH [7]: 8.8 µL/min/mg
MRT last [8]: 4.5 h
half-life [9]: 1.9 h
t1/2 [10]: 6.3 min
Tmax [11]: 2 h
bioavailability [12]: 87.5%
Activity [13]: Toxic
AUC(0-t) [14]: 871 ng·h/mL
half-life [15]: 3.82 h
Cmax [16]: 858 ng/mL
microsomal CLint [17]: 6.3 µL/min/mg
Activity [18]: Non-Toxic
MRT last [19]: 1.7 h
AUC(0-t) [20]: 7620 ng·h/mL

Compound: Cc1cncc(C)c1-c1cccc(COc2ccc([S+]([O-])CC(=O)O)cc2)c1 (racemic)
EC50 [1]: 3100 nM

Compound: CC#C[C@H](CC(=O)O)c1ccc(OCc2ccc(-c3cccc(OC)c3)cc2)cc1
EC50 [2]: 93.3 nM

Compound: Cc1cnccc1-c1cccc(COc2ccc([S+]([O-])CC(=O)O)cc2)c1 (racemic)
EC50 [1]: 2000 nM

The next lines start with results.

EC50 [1]: 1000 nM
Compound: O=C(O)C[S+]([O-])c1ccc(OCc2cccc(-c3ccncc3Cl)c2)cc1 (racemic)

EC50 [1]: 716 nM
Compound: Cc1cccc(C)c1-c1ccc(COc2ccc(S(=O)(=O)CC(=O)O)cc2)cc1

EC50 [1]: 66.7 nM
Compound: Cc1cc(OCCCN2CCOCC2)cc(C)c1-c1cccc(COc2ccc([S+]([O-])CC(=O)O)cc2)c1 (racemic)

EC50 [1]: 252 nM
Compound: Cc1cccc(C)c1-c1cccc(COc2ccc(S(=O)(=O)CC(=O)O)cc2)c1
inhibition (INH) [3]: Dose-Dependent Effect

EC50 [1]: 62.8 nM
Compound: Cc1cc(OCC2(C)COC2)cc(C)c1-c1cccc(COc2ccc([S+]([O-])CC(=O)O)cc2)c1 (racemic)

EC50 [1]: 454 nM
Compound: Cc1cccc(C)c1-c1ccc(COc2ccc([S+]([O-])CC(=O)O)cc2)cc1 (racemic)
